PubChem BioAssay (NCI)
Values joined by “and” are separate entries in the source; they are usually repeats but may differ in a detail not shown here. Equal values may be shown once.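 Briefly, cells in 96-well plates were exposed to five compound concentrations for 48 h, and endpoints were estimated by linear interpolation. The concentration for 50% growth inhibition is given as GI50. The concentration for full growth arrest is given as TGI.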

Experiments:
Experiment in all cases: DTP human tumour cell line panel, 48 h; in the data active means GI50 below about 0.43 µM; inactive means the rest
786-0 renal = test system: 786-0 renal
A498 renal = test system: A498 renal
A549 NSCLC = test system: A549 NSCLC
ACHN renal = test system: ACHN renal
BT-549 breast = test system: BT-549 breast
CAKI-1 renal = test system: CAKI-1 renal
CCRF-CEM leukemia = test system: CCRF-CEM leukemia
DU-145 prostate = test system: DU-145 prostate
EKVX NSCLC = test system: EKVX NSCLC
HCC-2998 colon = test system: HCC-2998 colon
HCT-116 colon = test system: HCT-116 colon
HCT-15 colon = test system: HCT-15 colon
HL-60(TB) leukemia = test system: HL-60(TB) leukemia
HOP-62 NSCLC = test system: HOP-62 NSCLC
HOP-92 NSCLC = test system: HOP-92 NSCLC
HS 578T breast = test system: HS 578T breast
HT29 colon = test system: HT29 colon
IGROV1 ovarian = test system: IGROV1 ovarian
K-562 leukemia = test system: K-562 leukemia
KM12 colon = test system: KM12 colon
LOX IMVI melanoma = test system: LOX IMVI melanoma
M14 melanoma = test system: M14 melanoma
MALME-3M melanoma = test system: MALME-3M melanoma
MCF7 breast = test system: MCF7 breast
MDA-MB-231 breast = test system: MDA-MB-231 breast
MDA-MB-435 = test system: MDA-MB-435
MDA-N = test system: MDA-N
MOLT-4 leukemia = test system: MOLT-4 leukemia
NCI-H226 lung = test system: NCI-H226 lung
NCI-H23 lung = test system: NCI-H23 lung
NCI-H460 lung = test system: NCI-H460 lung
NCI-H522 lung = test system: NCI-H522 lung
NCI/ADR-RES ovarian = test system: NCI/ADR-RES ovarian
OVCAR-3 ovarian = test system: OVCAR-3 ovarian
OVCAR-4 ovarian = test system: OVCAR-4 ovarian
OVCAR-5 ovarian = test system: OVCAR-5 ovarian
OVCAR-8 ovarian = test system: OVCAR-8 ovarian
PC-3 prostate = test system: PC-3 prostate
RPMI-8226 leukemia = test system: RPMI-8226 leukemia
RXF 393 renal = test system: RXF 393 renal
SF-268 CNS = test system: SF-268 CNS
SF-295 CNS = test system: SF-295 CNS
SF-539 CNS = test system: SF-539 CNS
SK-MEL-2 melanoma = test system: SK-MEL-2 melanoma
SK-MEL-28 melanoma = test system: SK-MEL-28 melanoma
SK-MEL-5 melanoma = test system: SK-MEL-5 melanoma
SK-OV-3 ovarian = test system: SK-OV-3 ovarian
SN12C renal = test system: SN12C renal
SNB-19 CNS = test system: SNB-19 CNS
SNB-75 CNS = test system: SNB-75 CNS
SR leukemia = test system: SR leukemia
SW-620 colon = test system: SW-620 colon
T-47D breast = test system: T-47D breast
TK-10 renal = test system: TK-10 renal
U251 CNS = test system: U251 CNS
UACC-257 melanoma = test system: UACC-257 melanoma
UACC-62 melanoma = test system: UACC-62 melanoma
UO-31 renal = test system: UO-31 renal
COLO 205 colon = test system: COLO 205 colon

C/C(=N\NC(=S)N(C)C)c1ccccn1
6.73 µM: TGI (U251 CNS)
13.1 µM: TGI (SF-295 CNS)
active: GI50 (786-0 renal) 0.0154 µM | GI50 (ACHN renal) 0.00151 µM | GI50 (CAKI-1 renal) 0.0567 µM | GI50 (CCRF-CEM leukemia) 0.000277 µM | GI50 (EKVX NSCLC) 0.143 µM | GI50 (HCT-116 colon) 0.000123 µM | GI50 (HCT-15 colon) 0.00191 µM | GI50 (HL-60(TB) leukemia) 0.000325 µM | GI50 (HOP-62 NSCLC) 0.0203 µM | GI50 (HT29 colon) 0.000846 µM | GI50 (IGROV1 ovarian) 0.00402 µM | GI50 (K-562 leukemia) 0.000104 µM | GI50 (KM12 colon) 0.22 µM | GI50 (LOX IMVI melanoma) 0.00215 µM | GI50 (M14 melanoma) 0.00884 µM | GI50 (MALME-3M melanoma) 0.00639 µM | GI50 (MDA-MB-231 breast) 0.291 µM | GI50 (MDA-MB-435) 0.00401 µM | GI50 (MDA-N) 0.178 µM | GI50 (MOLT-4 leukemia) 0.000297 µM | GI50 (NCI-H226 lung) 0.0645 µM | GI50 (NCI-H460 lung) 0.0214 µM | GI50 (NCI/ADR-RES ovarian) 0.000321 µM | GI50 (OVCAR-3 ovarian) 0.000474 µM | GI50 (OVCAR-8 ovarian) 0.00318 µM | GI50 (PC-3 prostate) 0.132 µM | GI50 (RPMI-8226 leukemia) 0.000878 µM | GI50 (SF-295 CNS) 0.012 µM | GI50 (SF-539 CNS) 0.0516 µM | GI50 (SK-MEL-5 melanoma) 0.00143 µM | GI50 (SN12C renal) 0.0436 µM | GI50 (SNB-19 CNS) 0.011 µM | GI50 (SR leukemia) 0.00132 µM | GI50 (TK-10 renal) 0.00279 µM | GI50 (U251 CNS) 0.00245 µM | GI50 (UACC-257 melanoma) 0.000438 µM | GI50 (UO-31 renal) 0.166 µM
12.5 µM: TGI (CAKI-1 renal)
9.59 µM: TGI (BT-549 breast)
inactive: GI50 (SK-MEL-2 melanoma) 0.624 µM
12.4 µM: TGI (HOP-62 NSCLC)
1.98 µM: TGI (NCI-H522 lung)
20 µM: TGI (KM12 colon)
18.5 µM: TGI (MDA-MB-435)
15 µM: TGI (HCC-2998 colon)
10.4 µM: TGI (OVCAR-4 ovarian)
3.91 µM: TGI (UO-31 renal)
11.2 µM: TGI (SN12C renal)
2.31 µM: TGI (NCI/ADR-RES ovarian)
18.7 µM: TGI (NCI-H23 lung)
15.8 µM: TGI (HT29 colon)
4.09 µM: TGI (NCI-H460 lung)
0.141 µM and 0.0176 µM: TGI (LOX IMVI melanoma)
> 41.3 µM: TGI (K-562 leukemia)
2.77 µM: TGI (SF-539 CNS)
16.3 µM: TGI (SNB-19 CNS)
20.6 µM: TGI (SK-MEL-28 melanoma)
1.74 µM: TGI (ACHN renal)
0.993 µM and 3.17 µM: TGI (DU-145 prostate)
13.4 µM: TGI (MCF7 breast) | TGI (RXF 393 renal)
35.4 µM: TGI (SW-620 colon)
6.85 µM: TGI (OVCAR-5 ovarian)
2.12 µM: TGI (MOLT-4 leukemia)
27.2 µM: TGI (SK-MEL-2 melanoma)
15.9 µM: TGI (PC-3 prostate)
0.889 µM: TGI (SK-OV-3 ovarian)
8.11 µM: TGI (A498 renal)
17.8 µM: TGI (HOP-92 NSCLC)
11.5 µM: TGI (M14 melanoma) | TGI (T-47D breast)
14.4 µM: TGI (SNB-75 CNS)
11.3 µM: TGI (786-0 renal)
37.2 µM: TGI (HS 578T breast)
0.232 µM: TGI (CCRF-CEM leukemia)
4.66 µM: TGI (IGROV1 ovarian)
14.3 µM: TGI (A549 NSCLC)
11.7 µM: TGI (SF-268 CNS)
10.7 µM: TGI (TK-10 renal)
2.38 µM: TGI (UACC-62 melanoma)
5.1 µM: TGI (NCI-H226 lung)
17.6 µM: TGI (MDA-MB-231 breast)
3.07 µM: TGI (EKVX NSCLC)
31.9 µM: TGI (RPMI-8226 leukemia)
10.8 µM: TGI (OVCAR-8 ovarian)
16.6 µM: TGI (HCT-15 colon)

CC(C)(C)CC(C)(C)c1ccc(O)c(C[N+](C)(C)[O-])c1
> 100 µM: TGI (786-0 renal) | TGI (A498 renal) | TGI (A549 NSCLC) | TGI (ACHN renal) | TGI (BT-549 breast) | TGI (CAKI-1 renal) | TGI (CCRF-CEM leukemia) | TGI (COLO 205 colon) | TGI (DU-145 prostate) | TGI (EKVX NSCLC) | TGI (HCC-2998 colon) | TGI (HCT-116 colon) | TGI (HCT-15 colon) | TGI (HOP-62 NSCLC) | TGI (HOP-92 NSCLC) | TGI (HS 578T breast) | TGI (HT29 colon) | TGI (IGROV1 ovarian) | TGI (K-562 leukemia) | TGI (KM12 colon) | TGI (LOX IMVI melanoma) | TGI (M14 melanoma) | TGI (MALME-3M melanoma) | TGI (MCF7 breast) | TGI (MDA-MB-231 breast) | TGI (MDA-MB-435) | TGI (MDA-N) | TGI (MOLT-4 leukemia) | TGI (NCI-H226 lung) | TGI (NCI-H23 lung) | TGI (NCI-H460 lung) | TGI (NCI-H522 lung) | TGI (NCI/ADR-RES ovarian) | TGI (OVCAR-3 ovarian) | TGI (OVCAR-4 ovarian) | TGI (OVCAR-5 ovarian) | TGI (OVCAR-8 ovarian) | TGI (PC-3 prostate) | TGI (RPMI-8226 leukemia) | TGI (RXF 393 renal) | TGI (SF-268 CNS) | TGI (SF-295 CNS) | TGI (SF-539 CNS) | TGI (SK-MEL-2 melanoma) | TGI (SK-MEL-28 melanoma) | TGI (SK-MEL-5 melanoma) | TGI (SK-OV-3 ovarian) | TGI (SN12C renal) | TGI (SNB-19 CNS) | TGI (SNB-75 CNS) | TGI (SR leukemia) | TGI (SW-620 colon) | TGI (T-47D breast) | TGI (TK-10 renal) | TGI (U251 CNS) | TGI (UACC-257 melanoma) | TGI (UACC-62 melanoma) | TGI (UO-31 renal)
99.6 µM: TGI (HL-60(TB) leukemia)

CN(C)CCCNCc1cccc2ccccc12
68.5 µM: TGI (SR leukemia)
> 100 µM: TGI (786-0 renal) | TGI (A498 renal) | TGI (A549 NSCLC) | TGI (ACHN renal) | TGI (BT-549 breast) | TGI (CCRF-CEM leukemia) | TGI (COLO 205 colon) | TGI (DU-145 prostate) | TGI (EKVX NSCLC) | TGI (HCT-116 colon) | TGI (HCT-15 colon) | TGI (HL-60(TB) leukemia) | TGI (HOP-62 NSCLC) | TGI (HOP-92 NSCLC) | TGI (HS 578T breast) | TGI (HT29 colon) | TGI (IGROV1 ovarian) | TGI (K-562 leukemia) | TGI (KM12 colon) | TGI (LOX IMVI melanoma) | TGI (M14 melanoma) | TGI (MALME-3M melanoma) | TGI (MCF7 breast) | TGI (MDA-MB-231 breast) | TGI (MDA-MB-435) | TGI (MDA-N) | TGI (MOLT-4 leukemia) | TGI (NCI-H226 lung) | TGI (NCI-H23 lung) | TGI (NCI-H460 lung) | TGI (NCI/ADR-RES ovarian) | TGI (OVCAR-3 ovarian) | TGI (OVCAR-4 ovarian) | TGI (OVCAR-5 ovarian) | TGI (OVCAR-8 ovarian) | TGI (PC-3 prostate) | TGI (RPMI-8226 leukemia) | TGI (RXF 393 renal) | TGI (SF-268 CNS) | TGI (SF-295 CNS) | TGI (SF-539 CNS) | TGI (SK-MEL-2 melanoma) | TGI (SK-MEL-28 melanoma) | TGI (SK-MEL-5 melanoma) | TGI (SK-OV-3 ovarian) | TGI (SN12C renal) | TGI (SNB-19 CNS) | TGI (SNB-75 CNS) | TGI (SW-620 colon) | TGI (T-47D breast) | TGI (TK-10 renal) | TGI (U251 CNS) | TGI (UACC-257 melanoma) | TGI (UACC-62 melanoma) | TGI (UO-31 renal)
